Data taken from PubChem BioAssay (NCI).
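Results reflect a 48-hour exposure of cells in 96-well plates to compound at five concentrations. TGI marks complete inhibition of growth.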

What was measured:
Test in all cases: DTP human tumour cell line panel, 48 h
EKVX NSCLC = system: EKVX NSCLC
786-0 renal = system: 786-0 renal
SR leukemia = system: SR leukemia
NCI-H460 lung = system: NCI-H460 lung
MDA-MB-231 breast = system: MDA-MB-231 breast
MDA-MB-435 = system: MDA-MB-435
SF-268 CNS = system: SF-268 CNS
CAKI-1 renal = system: CAKI-1 renal
RPMI-8226 leukemia = system: RPMI-8226 leukemia
HOP-92 NSCLC = system: HOP-92 NSCLC
MOLT-4 leukemia = system: MOLT-4 leukemia
PC-3 prostate = system: PC-3 prostate
HS 578T breast = system: HS 578T breast
COLO 205 colon = system: COLO 205 colon
OVCAR-8 ovarian = system: OVCAR-8 ovarian
HCT-116 colon = system: HCT-116 colon
SF-295 CNS = system: SF-295 CNS
UACC-62 melanoma = system: UACC-62 melanoma
MDA-N = system: MDA-N
DU-145 prostate = system: DU-145 prostate

SMILES	TGI (EKVX NSCLC) [µM]	TGI (786-0 renal) [µM]	TGI (SR leukemia) [µM]	TGI (NCI-H460 lung) [µM]	TGI (MDA-MB-231 breast) [µM]	TGI (MDA-MB-435) [µM]	TGI (SF-268 CNS) [µM]	TGI (CAKI-1 renal) [µM]	TGI (RPMI-8226 leukemia) [µM]	TGI (HOP-92 NSCLC) [µM]	TGI (MOLT-4 leukemia) [µM]	TGI (PC-3 prostate) [µM]	TGI (HS 578T breast) [µM]	TGI (COLO 205 colon) [µM]	TGI (OVCAR-8 ovarian) [µM]	TGI (HCT-116 colon) [µM]	TGI (SF-295 CNS) [µM]	TGI (UACC-62 melanoma) [µM]	TGI (MDA-N) [µM]	TGI (DU-145 prostate) [µM]
Cc1cc(NS(=O)(=O)c2ccc(N=Nc3c(O)c(C(=O)O)cc4ccccc34)cc2)nc(C)n1	> 100	> 100	> 100	> 100	> 100	> 100	> 100	> 100	> 100	> 100	> 100	> 100	> 100	> 100	> 100	> 100	> 100	> 100	–	–
CC(C)CCN=c1cc2n(-c3ccc(Cl)cc3)c3ccccc3nc-2cc1Nc1ccc(Cl)cc1	> 53	–	–	15.6	–	–	> 100	> 67.6	5.74	16.8	> 51.8	–	–	12.9	33.7	11.4	44.2	20.4	–	–
CCOCNC(=O)N(COCC)COCC	> 100	–	–	–	–	–	> 100	> 100	> 100	–	> 100	–	–	> 100	> 100	> 100	> 100	> 100	–	–
CC(=O)[C@]1(O)Cc2c(O)c3c(c(O)c2C(OC2OC(C)C(O)C(O)C2F)C1)C(=O)c1ccccc1C3=O (stereo partly specified)	14.7	> 37.1	–	–	7.21	1.95	2.28	–	2.36	3.92	0.0577	3.3	1.62	3.47	16.1	6.83	0.324	0.724	2.67	45.8
COc1ccc2c(c1)CCCc1cn[nH]c1-2	> 100	–	–	> 100	–	–	> 100	> 100	–	> 100	> 100	–	–	> 100	> 100	> 100	> 100	> 100	–	–
C[N+](C)(N)CCC[N+](C)(C)N	> 100	> 100	> 100	> 100	> 100	> 100	> 100	> 100	> 100	> 100	> 100	> 100	> 100	> 100	> 100	> 100	> 100	> 100	> 100	> 100
O=c1c2ccccc2nnn1-c1n[nH]c2ccccc12	> 100	> 100	–	> 100	> 100	> 100	> 100	> 100	> 100	> 100	–	> 100	> 100	> 100	–	> 100	> 100	> 100	–	> 100
CC[N+](C)(CC)Cc1ccccc1[N+](=O)[O-]	> 100	> 100	> 100	> 100	> 100	> 100	> 100	> 100	> 100	> 100	> 100	> 100	> 100	> 100	> 100	> 100	> 100	> 100	> 100	> 100
CC[C@]12C=CCN3CC[C@@]4(c5ccc(OC)cc5N(C)[C@H]4[C@@](O)(C(=O)OC)[C@@H]1OC(C)=O)[C@@H]32	> 200	–	–	> 200	–	–	> 200	> 200	> 200	132	> 176	–	–	> 200	> 11.2	> 200	> 200	> 200	–	–
COc1ccc(-c2c(C#N)c(NC(=S)NC(=O)c3ccccc3)nc3c2CCCC3)cc1OC	70.4	–	> 100	> 100	> 100	> 100	> 100	> 100	> 100	–	> 100	> 100	> 100	> 100	> 100	> 100	> 100	> 100	> 100	> 100
Cc1cc(C)cc(Nc2nnc3n2S(=O)(=O)c2cc(C#N)c(Cl)cc2S3)c1	21.2	> 100	3.42	12.2	12.8	10.4	5.48	12.6	–	–	52	–	15.8	34.6	–	6.37	9.2	15.4	–	12.5
CC(=O)OC[C@H]1[C@@H]2C(CC[C@]13CO3)OC(=O)CC(C)[C@]2(C)CCc1ccoc1 (stereo partly specified)	> 100	–	> 100	> 100	> 100	> 100	> 100	> 100	–	> 100	> 100	> 100	> 100	> 100	> 100	> 100	> 100	> 100	> 100	> 100
CN(CCCNc1ccc2ncn3c4ccccc4c(=O)c1c23)CCCN1C(=O)c2cccc3cc([N+](=O)[O-])cc(c23)C1=O	2.16	–	–	0.0224	1.26	2.13	2.28	2	–	6.39	0.193	–	2.42	1.06	1.86	0.02	1.42	–	2.01	–
O=C(NCCCNC(=O)c1ccc2cc(O)c(O)cc2c1)c1ccc2cc(O)c(O)cc2c1	> 100	–	> 100	> 100	–	> 100	> 100	> 100	> 100	48	> 100	> 100	–	> 100	> 100	> 100	–	42.7	> 100	82.2
Oc1ccc2ccccc2c1N=Nc1ccc(F)cc1	–	> 100	> 100	> 100	–	–	> 100	> 100	> 100	> 100	> 100	–	–	> 100	> 100	> 100	> 100	> 100	–	–
NCCc1nc(-c2nc(C(=O)O)cs2)cs1	> 100	> 100	> 100	> 100	> 100	> 100	> 100	> 100	> 100	> 100	> 100	> 100	> 100	> 100	> 100	> 100	> 100	> 100	> 100	> 100
COC(=O)C1(c2ccc(N(C)C)cc2OC)CCCN(C(=O)Oc2ccccc2[N+](=O)[O-])CCc2c1[nH]c1ccccc21 (stereo unspecified)	> 100	–	> 100	> 100	> 100	> 100	> 100	> 100	–	> 100	> 100	> 100	> 100	> 100	> 100	> 100	> 100	> 100	> 100	> 100
O=[N+]([O-])c1ccccc1N=Nc1c(O)sc2ccccc12	> 100	–	> 100	> 100	–	> 100	> 100	> 100	> 100	> 100	> 100	> 100	> 100	> 100	> 100	> 100	> 100	> 100	> 100	> 100
